Reference: patent US10689404B1, “Preparation method of tetraboronic acid compounds, and tetraboronic acid compounds” (Tamkang University, priority 2019, dated 2020)

How the values were obtained:
Assay type in all cases: cell-based
osteosarcoma cell U2OS [1] = test: Fluorescence microscopy with DAHMI sensor: entry of the tetraboronic acid compound into the cell nucleus; settings: osteosarcoma cells, compound acting 24 hours, 1.0 mM DAHMI at 37° C. for 20 minutes, nuclei stained with TOTO-3
Description: (§1) The tetraboronic acid compound prepared by the preparation method is subjected to a biological experimental test for further discussing the application of the tetraboronic acid compound as a potential drug of the BNCT. Since the BNCT is mainly used for a head and neck cancer, the experiments are performed using osteosarcoma cell U2OS as a material.
(§2) By utilizing the characteristics that a fluorescence sensor (DAHMI) is stably bonded to boric acid, and a complex compound thereof can emit blue fluorescence, whether the tetraboronic acid compound enters cells or not is observed. The tetraboronic acid compound is firstly added to the osteosarcoma cells to act for 24 hours. Next, after the tetraboronic acid compound is washed away, the fluorescence sensor DAHMI is added and soaked for 20 minutes, and the cells are cleaned with phosphate buffered saline (PBS). Finally, the cell nuclei are stained with a TOTO™-3 dye or the mitochondria are stained with a Mito tracker Green FM dye, and the cells are observed under a fluorescence microscope (Model: Leica DM2500 & DM2500 LED Optical microscopes), and the results are shown in FIG. 2.
Referring to FIG. 2, FIG. 2 is a cell fluorescence micrograph of a tetraboronic acid compound entering osteosarcoma cells according to one embodiment of the present invention. […]

osteosarcoma cell U2OS [2] = test: Fluorescence microscopy with DAHMI sensor: accumulation in mitochondria versus BPA; settings: osteosarcoma cells, mitochondria stained with Mito tracker Green FM
Description: as §1, §2
Referring to FIG. 3, FIG. 3 is a cell fluorescence micrograph of a tetraboronic acid compound and a clinical drug boronophenylalanine (BPA) according to one embodiment of the present invention.

osteosarcoma cell U2OS [3] = test: Flow cytometry of DAHMI fluorescence content (boron compound content in cells); settings: for Fluorescence content relative to the clinical drug boronophenylalanine: 2.0 mM, ratio to BPA; for Fluorescence content: boron compound 2.0 mM, DAHMI sensor, flow cytometer
Description: as §1
The content of the boron atoms in the osteosarcoma cells is further analyzed, and the fluorescence sensor DAHMI in the cells is excited by a flow cytometer (Model: Thermo Fisher Scientific Attune™ NxT Flow Cytometer) to detect the fluorescence content, thereby analyzing the content of the boron compound bonded to the fluorescence sensor DAHMI. After the osteosarcoma cells are treated with the clinical drug boronophenylalanine (BPA), B3 and B9 respectively, the fluorescence content is detected by the flow cytometer.

Compound	Entry into the cell nucleus (blue DAHMI fluorescence brightness, FIG. 2) (osteosarcoma cell U2OS [1])	Accumulation in the mitochondria (DAHMI fluorescence brightness level compared with BPA, FIG. 3) (osteosarcoma cell U2OS [2])	Fluorescence content relative to the clinical drug boronophenylalanine (osteosarcoma cell U2OS [3])	Fluorescence content (osteosarcoma cell U2OS [3])
O=C(NCc1ccc(B(O)O)cc1)C(c1cccc(B(O)O)c1)N(C(=O)c1ccc(B(O)O)cc1)c1ccc(B(O)O)cc1 (centres unmarked) [Example B3]	enter the cell nucleus more easily than other compounds	more capable of accumulating in the mitochondria than clinical BPA	1.95 times	4831 A.u.
O=C(NCc1ccc(B(O)O)cc1F)C(c1cc(B(O)O)ccc1F)N(C(=O)c1ccc(B(O)O)cc1F)c1ccc(B(O)O)cc1 (centres unmarked) [Example B9]	enter the cell nucleus more easily than other compounds	more capable of accumulating in the mitochondria than clinical BPA	1.44 times	3568 A.u.
